{"source": "patent US8466122B2", "about": "“Trialkyl cationic lipids and methods of use thereof” (Protiva Biotherapeutics, Inc., priority 2010, dated 2013)", "tested_on": "ApoB mRNA level in the liver", "assay": "Liver ApoB mRNA knockdown by 1:57 SNALP with ApoB siRNA in mice (QuantiGene assay, normalized to GAPDH mRNA)", "type": "in vivo, female BALB/c mice", "conditions": "IV bolus 0.05 mg/kg siRNA, mouse liver 48 h after dosing, compared to SNALP containing the C2K benchmark cationic lipid", "protocol": "In particular, the objective of this study was to assess the ApoB dose response gene silencing activity in the mouse liver of 1:57 SNALP containing various novel trialkyl cationic lipids of Formula I. The ApoB siRNA sequence used in this study is provided in Table 1.\nJust prior to the first treatment, animals were weighed and dose amounts were calculated based on the weight of individual animals (equivalent to 10 mL/kg, rounded to the nearest 10 μL). The test article was administered by IV injection through the tail vein once on Day 0 (1 dose total per animal).\nAnimals were sacrificed on Day 2, 48 h after test article administration. […] A brief necropsy was performed and observations recorded. […]\nBody weight was reported for individual animals in addition to group mean and standard deviation of the group mean. Data were expressed in terms of the measured unit (grams) and the group mean difference from PBS vehicle control treatment was calculated for this expression (include SD). For body weights, individual animal data were also expressed as % of pre-treatment value and the group means were expressed as % change from pre-treatment value (include SD). […] Drug activity was measured using a QuantiGene assay for ApoB mRNA level in the liver (normalized to GAPDH mRNA level). […] Data were expressed in terms of the measured unit as well as difference from PBS vehicle control treatment. […]"}
{"molecule": "CCCCC/C=C\\C/C=C\\CCCCCCCCC(OC(=O)CCCCN(C)C)C(O)(CCCCCCCC/C=C\\C/C=C\\CCCCC)CCCCCCCC/C=C\\C/C=C\\CCCCC", "note": "(stereo not shown) [Compound 13-B4, (6Z,9Z,29Z,32Z)-20-hydroxy-20-((9Z,12Z)-octadeca-9,12-dienyl)octatriaconta-6,9,29,32-tetraen-19-yl 5-(dimethylamino)pentanoate]", "values": [{"measurement": "liver ApoB mRNA knockdown activity (ApoB silencing activity)", "value": "unexpectedly improved ApoB silencing activity"}]}
